≈ marks a conversion by molar mass, not a printed value. Where two headings read alike, the source gives them in different places.
Tests used:
[1] = HTChem stab assay (chemical stability in buffer pH2, pH4 and pH7 vs DMSO reference); type: physicochemical; settings: 72 h, 50 µM; for Chemical stability data, Buffer pH2: pH 2; for Chemical stability data, Buffer pH4: pH 4; for Chemical stability data, Buffer pH7: pH 7
Outline: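 Compound from 10 mM DMSO stock shaken 72 h at room temperature in Buffer/DMSO (2:1) at pH2 (0.1N HCl), pH4 or pH7 (phosphate), alongside a DMSO control. Samples analysed by LC/UV/MS against the DMSO reference; degradant peaks identified by MS and sample purity reported.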

[2] = test system: Mycobacterium tuberculosis strain H37Rv; test: Test 2: MIC determination against M. tuberculosis, resazurin fluorescence; type: cell-based; settings: Test 2, M. tuberculosis H37Rv; for MIC90 / IC50: Mycobacterium tuberculosis, H37RV; for MIC90: read-out: Bacterial activity MIC90; for IC50: read-out: Bacterial activity pMIC50 (converted)
[3] = Metabolic stability in liver microsomes (intrinsic clearance); type: in vitro ADME
Outline: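 Compound (typically 1 μM) incubated at 37° C with liver microsomes (0.5 mg/ml protein) of selected species, 1 mM NADPH, 1 mM MgCl2, 0.1 M phosphate pH 7.4, sampled 0–60 min. Parent remaining measured by LC-MS/MS; t1/2 from log-linear slope, then Clint in μl/min/mg protein.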

[4] = test system: Salmonella typhimurium Ames II Mixed Strains (TA7001-TA7006) and TA98; test: Genotoxicity assay (AmesIIb mutagenicity test); type: cell-based; settings: Salmonella typhimurium; further: key: an AmesIIb score of 1 shows no genotoxicity signals
Excerpt: The aim is to evaluate compounds (and/or their metabolites) for their ability to induce reverse mutations in a gene of histidine-requiring Salmonella typhimurium strains to produce histidine-independent strains of these bacteria, in the absence and in the presence of a mammalian metabolic activation system.
Point mutations were made in the histidine (His) operon in Salmonella typhimurium, rendering the bacteria incapable of producing histidine. These single base substitutions are positioned at strategic points within the His gene, resulting in his-organisms that cannot grow unless histidine is supplied. When a mutagenic event occurs, base substitutions within the His gene then cause the reversion of the his-Ames II™ strains to His.
A chemical's mutagenic potential is assessed by exposing these his-organisms to varying concentrations of chemical and selecting for the reversion event. Medium lacking histidine is used for this selection which allows only those cells that have undergone the his- to His reversion to survive and grow.
The assay may be performed using a kit and instructions from Xenometric. The two strains provided in the Xenometric kit are the Ames II™ Mixed Strains and TA98. The Ames II™ Mixed Strains contains an equimolar mixture of the Ames II™ TA7001-TA7006 strains. Individually, these strains are designed to revert by only one specific base-pair substitution out of six possible changes. Thus, when mixed, all six base substitution mutations can be represented in one culture. This kit also contains TA98 for the detection of frameshift mutations.

[5] = mouse, microsomes, pH 7.4, Metabolic Stability Half life (mouse, min.)
[6] = mouse, microsomes, pH 7.4, mouse liver microsomes, read-out: Metabolic Stability (liver microsome intrinsic clearance) Clearance (mouse, μl/min./mg protein)
[7] = human, microsomes, pH 7.4, Metabolic Stability Half life (human, min.)
[8] = human, microsomes, pH 7.4, human liver microsomes, read-out: Metabolic Stability (liver microsome intrinsic clearance) Clearance (human, μl/min./mg protein)

SMILES	Chemical stability data, Vehicle DMSO [1] [%]	Chemical stability data, Buffer pH2 [1] [%]	Chemical stability data, Buffer pH4 [1] [%]	Chemical stability data, Buffer pH7 [1] [%]	MIC90 [2] [µM]	IC50 [2] [pM]	half-life at 1 µM [3, 5] [min]	microsomal CLint at 1 µM [3, 6] [µL/min/mg]	GeneTox AmesIIb Score [4]	Bacterial activity pMIC50 [2]	Metabolic Stability (liver microsome intrinsic clearance) Clearance (mouse, μl/min./mg protein) ([3]; mouse liver microsomes) [μl/min./mg protein]	Metabolic Stability Half life (mouse, min.) ([3]; mouse, microsomes, 1 µM, pH 7.4) [min]	half-life at 1 µM [3, 7] [min]	microsomal CLint at 1 µM [3, 8] [µL/min/mg]
CCc1nc2nc(C)ccn2c1C(=O)NCc1ccc(-c2nc3n(n2)CCC(C(F)(F)F)C3)cc1 (single isomer, unassigned) [Compound 5a]	100	100	100	100	0.06 (≈ 0.029 µg/mL)	21600	> 180	< 7.7	1	–	–	–	–	–
CCc1nc2ncc(Cl)cn2c1C(=O)NCc1ccc(-c2nc3n(n2)CCC(C(F)(F)F)C3)cc1 (single isomer, unassigned) [Compound 10a]	100	84	76	97	–	–	> 180	< 7.7	1	<6.301	–	–	–	–
CCc1nc2ncc(Cl)cn2c1C(=O)NCc1ccc(-c2nc3n(n2)CCC(C(F)(F)F)C3)cc1 (single isomer, unassigned) [Compound 10b]	96	81	71	92	0.021 (≈ 0.0106 µg/mL)	–	–	–	1	8.207	11.1	125	–	–
CCc1nc2ncc(C)cn2c1C(=O)NCc1ccc(-c2nc3n(n2)CCC(C(F)(F)F)C3)cc1 (stereo not shown) [Compound 1ab]	100	100	100	100	0.028 (≈ 0.0135 µg/mL)	9550	> 180	< 7.7	1	–	–	–	> 180	< 7.7
CCc1nc2ncc(C)cn2c1C(=O)NCc1ccc(-c2nc3n(n2)CCC(C)C3)cc1 (stereo not shown) [Compound 4ab]	98	98	98	98	0.017 (≈ 0.0073 µg/mL)	7050	165	8.38	1	–	–	–	–	–
CCc1nc2nc(C)ccn2c1C(=O)NCc1ccc(-c2nc3n(n2)CCC(C(F)(F)F)C3)cc1 (stereo not shown) [Compound 5ab]	94	95	96	96	0.023 (≈ 0.0111 µg/mL)	8280	> 180	< 7.7	1	–	–	–	–	–
CCc1nc2ncc(OC)cn2c1C(=O)NCc1ccc(-c2nc3n(n2)CCC(C(F)(F)F)C3)cc1 (stereo not shown) [Compound 6ab]	93	100	100	100	0.007 (≈ 0.0035 µg/mL)	3480	97.4	14.2	1	–	–	–	–	–
CCc1nc2nc(C)c(C)cn2c1C(=O)NCc1ccc(-c2nc3n(n2)CCC(C(F)(F)F)C3)cc1 (stereo not shown) [Compound 9ab]	100	100	100	100	0.011 (≈ 0.00547 µg/mL)	4940	99.7	13.9	1	–	–	–	–	–
CCc1nc2ncc(Cl)cn2c1C(=O)NCc1ccc(-c2nc3n(n2)CCC(C(F)(F)F)C3)cc1 (stereo not shown) [Compound 10ab]	90	72	64	90	0.016 (≈ 0.00806 µg/mL)	5500	> 180	< 7.7	1	–	–	–	–	–
CCc1nc2nc(N)c(C)cn2c1C(=O)NCc1ccc(-c2nc3n(n2)CCC(C(F)(F)F)C3)cc1 (stereo not shown) [Compound 12ab]	99	100	100	100	0.064 (≈ 0.0319 µg/mL)	23400	> 180	< 7.7	1	–	–	–	> 180	< 7.7
CCc1nc2ncc(C)cn2c1C(=O)NCc1ccc(-c2cc3n(n2)CCC(C(F)(F)F)C3)cc1 (stereo not shown) [Compound 20ab]	100	100	100	100	0.003 (≈ 0.00145 µg/mL)	931	65	21.3	1	–	–	–	38.2	36.3
CCc1nc2ncc(C)cn2c1C(=O)NCc1ccc(-c2nc3n(n2)CCC(C(F)(F)F)C3)c(F)c1 (stereo not shown) [Compound 22ab]	98	97	97	98	0.007 (≈ 0.00351 µg/mL)	2290	107	13	1	–	–	–	–	–
CCc1nc2ncc(C)cn2c1C(=O)NCc1ccc(-c2nc3n(n2)CCC(C(F)(F)F)C3)c(C)c1 (stereo not shown) [Compound 23ab]	100	100	100	100	0.022 (≈ 0.0109 µg/mL)	8300	94.9	14.6	1	–	–	–	–	–
CCc1nc2ncc(C)cn2c1C(=O)NCc1ccc(-c2nc3n(n2)CC(C(F)(F)F)CC3)cc1 (stereo not shown) [Compound 24ab]	100	100	100	100	0.008 (≈ 0.00387 µg/mL)	3380	> 180	< 7.7	1	–	–	–	–	–
CCc1nc2ncc(C)cn2c1C(=O)NCc1ccc(-c2nc3n(n2)CCC(C(F)F)C3)cc1 (stereo not shown) [Compound 25ab]	100	100	100	100	0.014 (≈ 0.00652 µg/mL)	7460	139	9.97	1	–	–	–	–	–
CCc1nc2ncc(C)cn2c1C(=O)NCc1ccc(-c2nc3n(n2)CCC(OC)C3)cc1 (stereo not shown) [Compound 26ab]	95	95	95	95	0.143 (≈ 0.0637 µg/mL)	49400	127	10.9	1	–	–	–	–	–
CCc1nc2ncc(C)cn2c1C(=O)NCc1ccc(-c2nc3n(n2)CCC(O)C3)cc1 (stereo not shown) [Compound 29ab]	100	100	100	100	3.19 (≈ 1.38 µg/mL)	> 500000	> 180	< 7.7	1	–	–	–	> 180	< 7.7
CCc1nc2ncc(C)cn2c1C(=O)NCc1ccc(-c2nc3n(n2)CCC(OCCOC)C3)cc1 (stereo not shown) [Compound 30ab]	98	98	98	98	0.332 (≈ 0.163 µg/mL)	109000	153	9.08	1	–	–	–	–	–

From patent publication US20250034171A1, “IMIDAZOPYRIDINE AMIDES AND RELATED COMPOUNDS FOR USE IN THE TREATMENT OF BACTERIAL INFECTIONS” (priority 2021, published 2025)
